Among the data in patent US5475132A, “Antifungal agents based on amides containing a phenyl group” (Rhone-Poulenc Agrochimie, priority 1988, dated 1995) are inhibition values, retold here.

For this assay, the system named is Phytophthora citrophthora. Nature of the assay: Example B3: action on phytopathogenic soil fungi, growth on agar in Petri dishes. The format is cell-based. To be noted: 120 h, 30 ppm, agar medium, 22° C., 5 days, read-out: inhibition of the development of the fungus.

Regarding `CCN(CC)C(=O)c1cnc(-c2ccc(Br)cc2)nc1-c1ccc(OC)c(OC)c1` [Compound 430], the inhibition at 30 ppm is at least 80%. In the case of `COc1ccc(-c2nc(Oc3ccc(C)cc3)ncc2C(=O)N2CCOCC2)cc1OC` [Compound 433, 4-(3,4-dimethoxyphenyl)-2-(4-methylphenoxy)-5-morpholinocarbonylpyrimidine], the inhibition at 30 ppm was at least 80%.

Regarding `COc1ccc(-c2nc(SCc3ccccc3)ncc2C(=O)N2CCOCC2)cc1OC` [Compound 434], the inhibition at 30 ppm was at least 80%.

For the compound `COc1ccc(-c2nc(SCc3ccc(Cl)cc3)ncc2C(=O)N2CCOCC2)cc1OC` [Compound 435], the inhibition at 30 ppm is at least 80%. In the case of `COc1ccc(-c2nc(Sc3ccc(Cl)cc3)ncc2C(=O)N2CCOCC2)cc1OC` [Compound 436] it was at least 80%; in that of `COc1ccc(-c2nc(Oc3ccc(Cl)cc3)ncc2C(=O)N2CCOCC2)cc1OC` [Compound 437], at least 80%; in that of `COc1ccc(-c2nc(Oc3ccc(Br)cc3)ncc2C(=O)N2CCOCC2)cc1OC` [Compound 438], at least 80%. Consider `COc1ccc(-c2nc(Oc3ccc(F)cc3)ncc2C(=O)N2CCOCC2)cc1OC` [Compound 439], for which the inhibition at 30 ppm is at least 80%. `COc1ccc(-c2nc(Oc3ccccc3C)ncc2C(=O)N2CCOCC2)cc1OC` [Compound 440]: the inhibition at 30 ppm is at least 80%. `COc1ccc(-c2nc(Oc3ccc(Cl)c(C)c3)ncc2C(=O)N2CCOCC2)cc1OC` [Compound 441]: the inhibition at 30 ppm is at least 80%. As for `COc1ccc(-c2nc(Oc3ccc(C(F)(F)F)cc3)ncc2C(=O)N2CCOCC2)cc1OC` [Compound 442], the inhibition at 30 ppm is at least 80%. For the compound `COc1ccc(-c2nc(Sc3cccc(Cl)c3)ncc2C(=O)N2CCOCC2)cc1OC` [Compound 445], the inhibition at 30 ppm is at least 80%.

As for `COc1ccc(-c2nc(Sc3ccc(Br)cc3)ncc2C(=O)N2CCOCC2)cc1OC` [Compound 447], the inhibition at 30 ppm was at least 80%. `COc1ccc(-c2nc(Sc3ccc(F)cc3)ncc2C(=O)N2CCOCC2)cc1OC` [Compound 449]: the inhibition at 30 ppm was at least 80%. With `COc1ccc(-c2nc(Sc3ccc(Cl)c(Cl)c3)ncc2C(=O)N2CCOCC2)cc1OC` [Compound 450], the inhibition at 30 ppm is at least 80%. In the case of `COc1ccc(-c2nc(N3CCCCC3)ncc2C(=O)N2CCOCC2)cc1OC` [Compound 458], the inhibition at 30 ppm was at least 80%. In the case of `COc1ccc(-c2cc(-c3ccccc3)nc(C)c2C(=O)N2CCOCC2)cc1OC` [Compound 505, N-[4-(3,4-dimethoxyphenyl)-2-methyl-6-phenylnicotinoyl]morpholine] it was at least 80%. For `CCN(C)C(=O)c1c(-c2ccc(OC)c(OC)c2)cc(-c2ccccc2)nc1C` [Compound 506], the inhibition at 30 ppm was at least 80%. As for `COCCN(C)C(=O)c1c(-c2ccc(OC)c(OC)c2)cc(-c2ccccc2)nc1C` [Compound 507], the inhibition at 30 ppm was at least 80%.

On to `COc1ccc(-c2c(C(=O)N3CCOCC3)cc(-c3ccc(F)cc3)n2C)cc1OC` [Compound 607, 5-(4-fluorophenyl)-2-(3,4-dimethoxyphenyl)-1-methyl-3-(morpholinocarbonyl)pyrrole], for which the inhibition at 30 ppm was at least 80%. On to `COc1ccc(-c2c(C(=O)N3CCOCC3)cnn2-c2ccc(Cl)cc2)cc1OC` [Compound 608, 2-(4-Chlorophenyl)-3-(3,4-dimethoxyphenyl)-4-(morpholinocarbonyl)pyrazole], for which the inhibition at 30 ppm was at least 80%. With `COc1ccc(-c2c(C(=O)N3CCOCC3)cc(-c3ccc(Cl)cc3)n2C)cc1OC` [Compound 619], the inhibition at 30 ppm is at least 80%.

With `COc1ccc(-c2c(C(=O)N3CCOCC3)cc(-c3ccccc3)n2C)cc1OC` [Compound 621], the inhibition at 30 ppm was at least 80%. Regarding `COc1ccc(-c2nc(C(C)(C)C)ccc2C(=O)N2CCOCC2)cc1OC` [Compound 3110], the inhibition at 30 ppm is at least 80%. For the compound `COc1ccc(-c2nc(C=C(C)C)ccc2C(=O)N2CCOCC2)cc1OC` [Compound 3111], the inhibition at 30 ppm was at least 80%. For `COc1ccc(-c2nc(-c3ccsc3)ccc2C(=O)N2CCOCC2)cc1OC` [Compound 3112], the inhibition at 30 ppm was at least 80%. Turning to `COc1ccc(-c2nc(-c3cccs3)ccc2C(=O)N2CCOCC2)cc1OC` [Compound 3113], the inhibition at 30 ppm is at least 80%. The same measure for `COc1ccc(-c2nc(-c3cccc4ccccc34)ccc2C(=O)N2CCOCC2)cc1OC` [Compound 3114]: at least 80%; for `COc1ccc(-c2nc(-c3ccc4ccccc4c3)ccc2C(=O)N2CCOCC2)cc1OC` [Compound 3115]: at least 80%. In the case of `COc1ccc(-c2nc(-c3ccco3)ccc2C(=O)N2CCOCC2)cc1OC` [Compound 3116], the inhibition at 30 ppm was at least 80%. With `COCCN(C)C(=O)c1ccc(-c2ccsc2)nc1-c1ccc(OC)c(OC)c1` [Compound 3117], the inhibition at 30 ppm was at least 80%. Consider `CCN(C)C(=O)c1ccc(-c2ccsc2)nc1-c1ccc(OC)c(OC)c1` [Compound 3118], for which the inhibition at 30 ppm is at least 80%.

As to `CCN(CC)C(=O)c1ccc(-c2ccsc2)nc1-c1ccc(OC)c(OC)c1` [Compound 3119], the inhibition at 30 ppm was at least 80%.

The term inhibition denotes the percentage by which the read-out fell short of the control.
